Numbers after ± are expanded uncertainties.
How the values were obtained:
[1] = Liquid, Constant-volume piezometry
[2] = xn = mol fraction of the nth substance listed; conditions: Liquid

c1ccc2[nH]ccc2c1 [1H-indole]
specific volume [m3/kg], [1]
Conditions	323.15 K	333.15 K	343.15 K	353.15 K
100 kPa	0.0009295 ± 2e-07	0.000936 ± 3e-07	0.0009428 ± 3e-07	0.0009499 ± 3e-07
10000 kPa	–	0.0009315 ± 3e-07	0.0009381 ± 3e-07	0.0009449 ± 3e-07
20000 kPa	–	0.0009273 ± 3e-07	0.0009335 ± 3e-07	0.0009402 ± 3e-07
30000 kPa	–	0.0009228 ± 4e-07	0.0009292 ± 4e-07	0.0009358 ± 4e-07
40000 kPa	–	0.0009192 ± 4e-07	0.0009249 ± 4e-07	0.0009313 ± 4e-07
50000 kPa	–	0.0009157 ± 5e-07	0.0009209 ± 5e-07	0.0009273 ± 5e-07
60000 kPa	–	–	0.0009173 ± 6e-07	0.0009231 ± 6e-07
70000 kPa	–	–	0.000914 ± 6e-07	0.0009195 ± 6e-07
80000 kPa	–	–	0.0009103 ± 7e-07	0.0009158 ± 7e-07
90000 kPa	–	–	–	0.0009123 ± 8e-07
100000 kPa	–	–	–	0.0009091 ± 8e-07
110000 kPa	–	–	–	0.0009059 ± 9e-07

c1ccc2[nH]ccc2c1 [1H-indole] + c1ccc(-c2ccccc2)cc1
specific volume [m3/kg], [2], 100 kPa
Conditions	303.15 K	313.15 K	323.15 K	333.15 K	343.15 K	353.15 K	363.15 K
x1 = 0.25	–	–	0.0009769 ± 8e-07	0.0009848 ± 9e-07	0.0009924 ± 1e-06	0.001 ± 1.1e-06	0.001009 ± 1.2e-06
x1 = 0.5	0.0009477 ± 6e-07	0.000955 ± 7e-07	0.0009624 ± 8e-07	0.0009698 ± 9e-07	0.000977 ± 1e-06	0.0009848 ± 1e-06	0.0009924 ± 1.1e-06
x1 = 0.75	0.0009328 ± 6e-07	0.0009393 ± 7e-07	0.0009462 ± 7e-07	0.0009538 ± 8e-07	0.0009599 ± 9e-07	0.0009675 ± 1e-06	0.0009747 ± 1.1e-06
x1 = 1	–	–	0.0009295 ± 7e-07	0.000936 ± 8e-07	0.0009428 ± 9e-07	0.0009499 ± 1e-06	–

specific volume [m3/kg], [2], 333.15 K, Constant-volume piezometry
Conditions	x1 = 0.25	x1 = 0.5	x1 = 0.75	x1 = 1
100 kPa	0.0009848 ± 3e-07	0.0009698 ± 3e-07	0.0009538 ± 3e-07	0.000936 ± 3e-07
10000 kPa	0.0009792 ± 3e-07	0.0009648 ± 3e-07	0.0009488 ± 3e-07	0.0009315 ± 3e-07
20000 kPa	0.0009737 ± 3e-07	0.0009601 ± 3e-07	0.0009442 ± 3e-07	0.0009273 ± 3e-07
30000 kPa	–	0.0009553 ± 4e-07	0.0009399 ± 4e-07	0.0009228 ± 4e-07
40000 kPa	–	0.0009507 ± 4e-07	0.0009356 ± 4e-07	0.0009192 ± 4e-07
50000 kPa	–	0.0009464 ± 5e-07	0.0009316 ± 5e-07	0.0009157 ± 5e-07
60000 kPa	–	0.0009423 ± 6e-07	0.0009278 ± 5e-07	–
70000 kPa	–	0.0009384 ± 6e-07	0.0009241 ± 6e-07	–
80000 kPa	–	0.0009347 ± 7e-07	0.0009205 ± 7e-07	–
90000 kPa	–	–	0.0009171 ± 8e-07	–
100000 kPa	–	–	0.0009139 ± 8e-07	–
110000 kPa	–	–	0.0009108 ± 9e-07	–
120000 kPa	–	–	0.0009077 ± 1e-06	–
130000 kPa	–	–	0.0009047 ± 1e-06	–
140000 kPa	–	–	0.000902 ± 1.1e-06	–
150000 kPa	–	–	0.0008991 ± 1.2e-06	–
160000 kPa	–	–	0.0008965 ± 1.2e-06	–
170000 kPa	–	–	0.0008939 ± 1.3e-06	–

Cc1ccc2ccccc2c1 [2-methylnaphthalene]
[1]
Conditions	specific volume [m3/kg]
303.15 K, 100 kPa	0.001001 ± 9e-07
313.15 K, 100 kPa	0.001009 ± 2e-07
323.15 K, 100 kPa	0.001017 ± 1.2e-06
333.14 K, 100 kPa	0.001025 ± 3e-07
333.15 K, 100 kPa	0.001025 ± 3e-07
333.15 K, 10000 kPa	0.001018 ± 3e-07
333.15 K, 20000 kPa	0.001012 ± 4e-07
333.15 K, 30000 kPa	0.001007 ± 4e-07
333.15 K, 40000 kPa	0.001001 ± 5e-07
333.15 K, 50000 kPa	0.0009961 ± 5e-07
333.15 K, 60000 kPa	0.0009915 ± 6e-07
333.15 K, 70000 kPa	0.0009868 ± 7e-07
333.15 K, 80000 kPa	0.0009826 ± 7e-07
333.15 K, 90000 kPa	0.0009784 ± 8e-07
333.15 K, 100000 kPa	0.0009749 ± 9e-07
343.15 K, 100 kPa	0.001033 ± 3e-07
343.15 K, 10000 kPa	0.001026 ± 3e-07
343.15 K, 20000 kPa	0.00102 ± 3e-07
343.15 K, 30000 kPa	0.001014 ± 4e-07
343.15 K, 40000 kPa	0.001008 ± 5e-07
343.15 K, 50000 kPa	0.001003 ± 5e-07
343.15 K, 60000 kPa	0.0009977 ± 6e-07
343.15 K, 70000 kPa	0.0009932 ± 7e-07
343.15 K, 80000 kPa	0.0009885 ± 8e-07
343.15 K, 90000 kPa	0.0009843 ± 8e-07
343.15 K, 100000 kPa	0.0009802 ± 9e-07
343.15 K, 110000 kPa	0.0009764 ± 1e-06
343.15 K, 120000 kPa	0.0009725 ± 1e-06
343.15 K, 130000 kPa	0.0009689 ± 1.1e-06
343.15 K, 140000 kPa	0.0009655 ± 1.2e-06
353.15 K, 100 kPa	0.001041 ± 3e-07

Cc1ccc2ccccc2c1 [2-methylnaphthalene] + c1ccc2[nH]ccc2c1
[2], 100 kPa, x2 = 0
Conditions	specific volume [m3/kg]
303.15 K	0.001001 ± 9e-07
313.15 K	0.001009 ± 1.1e-06
323.15 K	0.001017 ± 1.2e-06
333.15 K	0.001025 ± 1.4e-06
343.15 K	0.001033 ± 1.5e-06
353.15 K	0.001041 ± 1.7e-06

[2], 333.15 K, Constant-volume piezometry, x2 = 0
Conditions	specific volume [m3/kg]
100 kPa	0.001025 ± 3e-07
10000 kPa	0.001018 ± 3e-07
20000 kPa	0.001012 ± 4e-07
30000 kPa	0.001007 ± 4e-07
40000 kPa	0.001001 ± 5e-07
50000 kPa	0.0009961 ± 5e-07
60000 kPa	0.0009915 ± 6e-07
70000 kPa	0.0009868 ± 7e-07
80000 kPa	0.0009826 ± 7e-07
90000 kPa	0.0009784 ± 8e-07
100000 kPa	0.0009749 ± 9e-07

c1ccccc1 [benzene]
Conditions	specific volume [m3/kg]
[1], 293.15 K, 101.33 kPa	0.001138 ± 2e-07

c1ccc(-c2ccccc2)cc1 [biphenyl]
[1]
Conditions	specific volume [m3/kg]
333.15 K, 100 kPa	0.0009985 ± 2e-07
343.15 K, 100 kPa	0.001007 ± 3e-07
353.15 K, 100 kPa	0.001015 ± 3e-07
353.15 K, 10000 kPa	0.001008 ± 3e-07
353.15 K, 20000 kPa	0.001002 ± 4e-07
353.15 K, 30000 kPa	0.0009956 ± 4e-07
363.15 K, 100 kPa	0.001024 ± 3e-07
363.16 K, 100 kPa	0.001024 ± 3e-07
363.16 K, 10000 kPa	0.001016 ± 3e-07
363.16 K, 20000 kPa	0.00101 ± 4e-07
363.16 K, 30000 kPa	0.001003 ± 4e-07
363.16 K, 40000 kPa	0.000997 ± 5e-07
363.16 K, 50000 kPa	0.0009917 ± 5e-07
363.16 K, 60000 kPa	0.0009864 ± 6e-07
363.16 K, 70000 kPa	0.0009815 ± 7e-07

c1ccc(-c2ccccc2)cc1 [biphenyl] + c1ccc2[nH]ccc2c1
Conditions	specific volume [m3/kg]
[2], 333.15 K, 100 kPa, Constant-volume piezometry, x2 = 0	0.0009985 ± 2e-07

[2], 100 kPa, x2 = 0
Conditions	specific volume [m3/kg]
333.15 K	0.0009985 ± 9e-07
343.15 K	0.001007 ± 1e-06
353.15 K	0.001015 ± 1.1e-06
363.15 K	0.001024 ± 1.2e-06

Source: the NIST ThermoML archive (doi:10.1007/s10765-009-0625-z)
